In article PMC10308197 (Cell Insight, 2023):
Each block holds one molecule with its values, some of them ahead of it.

Key:
METTL9 [1] = target: T1, METTL9 (Homo sapiens, UniProt Q9H1A3); test: Isothermal titration calorimetry; format: binding
Target sequence in this assay (Q9H1A3 whole entry): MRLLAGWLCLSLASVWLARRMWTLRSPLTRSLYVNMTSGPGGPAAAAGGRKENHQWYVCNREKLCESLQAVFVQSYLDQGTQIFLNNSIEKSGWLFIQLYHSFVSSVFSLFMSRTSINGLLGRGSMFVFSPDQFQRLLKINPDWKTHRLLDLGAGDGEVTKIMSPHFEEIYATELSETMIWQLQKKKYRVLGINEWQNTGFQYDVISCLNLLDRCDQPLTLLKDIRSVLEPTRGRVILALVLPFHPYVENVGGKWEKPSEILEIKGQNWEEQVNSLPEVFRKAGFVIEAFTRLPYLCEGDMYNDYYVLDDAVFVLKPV

METTL9 [2] = target: T1, METTL9; format: biochemical; conditions: mono-methylated product monitored, N = 3
Target sequence in this assay (Q9H1A3 19-318): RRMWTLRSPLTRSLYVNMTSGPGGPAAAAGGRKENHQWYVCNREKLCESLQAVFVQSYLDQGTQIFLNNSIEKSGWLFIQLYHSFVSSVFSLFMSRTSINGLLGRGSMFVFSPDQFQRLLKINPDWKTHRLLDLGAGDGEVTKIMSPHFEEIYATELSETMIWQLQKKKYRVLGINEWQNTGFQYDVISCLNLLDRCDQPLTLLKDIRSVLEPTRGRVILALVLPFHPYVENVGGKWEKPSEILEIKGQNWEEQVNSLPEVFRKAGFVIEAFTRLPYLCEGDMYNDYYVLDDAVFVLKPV

METTL9 mutants = test: ITC of mutant METTL9 titrated with SAH; format: binding, human; conditions: METTL9 T173A, T115A and N118A (range over the three mutants)
D213S or D213N = test: ITC
T115A, V241G, and C297A = test: ITC
METTL9 D213S = METTL9 D213S (human, UniProt Q9H1A3 19-318, D213S); test: ITC
METTL9 D213N = METTL9 D213N (human, UniProt Q9H1A3 19-318, D213N); test: ITC
METTL9 T115A = METTL9 T115A (human, UniProt Q9H1A3 19-318, T115A); test: ITC
METTL9 T115A, sequence (Q9H1A3 19-318 T115A): as the sequence (Q9H1A3 19-318) above, with T97A counted along it

METTL9 D213S, sequence (Q9H1A3 19-318 D213S): as the sequence (Q9H1A3 19-318) above, with D195S counted along it
METTL9 D213N, sequence (Q9H1A3 19-318 D213N): as the sequence (Q9H1A3 19-318) above, with D195N counted along it

Kd (METTL9 [1]): 1.6 µM
Molecule: C[S+](CC[C@H](N)C(=O)[O-])C[C@H]1O[C@@H](n2cnc3c(N)ncnc32)[C@H](O)[C@@H]1O (some centres unmarked) [SAM, S-adenosylmethionine]

Molecule: Ac-HTHESWIHG-NH2 [SLC39A7_66-74]
Kd (METTL9 [1]): 6.7 µM

effect on histidine methylation of SLC39A7_55-70 by METTL9 (METTL9 [2]; 0.5 mM ZnCl2 added): substantially inhibited
Molecule: [Cl-].[Cl-].[Zn+2] [ZnCl2]

Kd (METTL9 [1]): 3.1 µM
decrease in SAH binding relative to wild type (METTL9 mutants): 2–10 fold
Molecule: Nc1ncnc2c1ncn2[C@@H]1O[C@H](CSCC[C@H](N)C(=O)O)[C@@H](O)[C@H]1O [SAH, S-adenosylhomocysteine]

effect on METTL9 enzymatic activity towards SLC39A7_55-70 in presence of zinc (METTL9 [2]; zinc ions removed by EDTA): completely restored
Molecule: O=C(O)CN(CCN(CC(=O)O)CC(=O)O)CC(=O)O [EDTA, ethylenediaminetetraacetic acid]

fold weakening of binding against wild-type METTL9 (D213S or D213N): 4 to 6 fold
fold reduction of binding against wild-type METTL9 (T115A, V241G, and C297A): 6 to 10 fold
binding result (METTL9 D213S): binds
binding result (METTL9 D213N): binds
binding result (METTL9 T115A): binds
Molecule: HTHESIWHG [SLC39A7_(66-74) peptide]
